These results are taken from patent publication US20170087174A1, “COMBINATION THERAPY REGIMEN FOR TREATMENT OF HCV” (JANSSEN PHARMACEUTICALS, INC., priority 2015, published 2017).

For one data set, the target named is T1, 2B6 (Homo sapiens, UniProt P20813).
T1 sequence (P20813 1-491): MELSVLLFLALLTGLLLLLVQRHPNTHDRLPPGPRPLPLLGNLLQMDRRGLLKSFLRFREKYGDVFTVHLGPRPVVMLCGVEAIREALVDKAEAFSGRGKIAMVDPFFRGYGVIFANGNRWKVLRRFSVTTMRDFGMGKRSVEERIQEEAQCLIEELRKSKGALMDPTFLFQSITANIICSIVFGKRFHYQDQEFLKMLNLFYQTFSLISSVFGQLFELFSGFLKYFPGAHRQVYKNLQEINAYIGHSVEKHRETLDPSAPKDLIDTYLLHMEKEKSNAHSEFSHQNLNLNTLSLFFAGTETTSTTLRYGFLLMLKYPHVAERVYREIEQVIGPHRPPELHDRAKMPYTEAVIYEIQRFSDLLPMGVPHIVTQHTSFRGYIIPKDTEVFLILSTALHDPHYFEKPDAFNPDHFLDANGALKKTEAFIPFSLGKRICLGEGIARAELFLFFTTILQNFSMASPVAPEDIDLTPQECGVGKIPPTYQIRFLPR
The data set can be described thus: CYP2B6 inhibition. It counts as in vitro ADME. As to conditions: up to 10 μM.

A further data set concerns the target MRP2/3 (Homo sapiens, UniProt O15438). As to conditions: in vitro; cited from earlier work.
Data set [1] deals with Rosuvastatin (substrate of OATPs & BCRP). As to conditions: SMV co-administered with Rosuvastatin; cited from earlier work.
A further data set deals with CYP3A4. Briefly: CYP3A4 induction. It is filed as in vitro ADME. The settings on record: up to 10 μM.

SMILES strings stand for the structures.

Chain of MRP2/3 (O15438 whole entry): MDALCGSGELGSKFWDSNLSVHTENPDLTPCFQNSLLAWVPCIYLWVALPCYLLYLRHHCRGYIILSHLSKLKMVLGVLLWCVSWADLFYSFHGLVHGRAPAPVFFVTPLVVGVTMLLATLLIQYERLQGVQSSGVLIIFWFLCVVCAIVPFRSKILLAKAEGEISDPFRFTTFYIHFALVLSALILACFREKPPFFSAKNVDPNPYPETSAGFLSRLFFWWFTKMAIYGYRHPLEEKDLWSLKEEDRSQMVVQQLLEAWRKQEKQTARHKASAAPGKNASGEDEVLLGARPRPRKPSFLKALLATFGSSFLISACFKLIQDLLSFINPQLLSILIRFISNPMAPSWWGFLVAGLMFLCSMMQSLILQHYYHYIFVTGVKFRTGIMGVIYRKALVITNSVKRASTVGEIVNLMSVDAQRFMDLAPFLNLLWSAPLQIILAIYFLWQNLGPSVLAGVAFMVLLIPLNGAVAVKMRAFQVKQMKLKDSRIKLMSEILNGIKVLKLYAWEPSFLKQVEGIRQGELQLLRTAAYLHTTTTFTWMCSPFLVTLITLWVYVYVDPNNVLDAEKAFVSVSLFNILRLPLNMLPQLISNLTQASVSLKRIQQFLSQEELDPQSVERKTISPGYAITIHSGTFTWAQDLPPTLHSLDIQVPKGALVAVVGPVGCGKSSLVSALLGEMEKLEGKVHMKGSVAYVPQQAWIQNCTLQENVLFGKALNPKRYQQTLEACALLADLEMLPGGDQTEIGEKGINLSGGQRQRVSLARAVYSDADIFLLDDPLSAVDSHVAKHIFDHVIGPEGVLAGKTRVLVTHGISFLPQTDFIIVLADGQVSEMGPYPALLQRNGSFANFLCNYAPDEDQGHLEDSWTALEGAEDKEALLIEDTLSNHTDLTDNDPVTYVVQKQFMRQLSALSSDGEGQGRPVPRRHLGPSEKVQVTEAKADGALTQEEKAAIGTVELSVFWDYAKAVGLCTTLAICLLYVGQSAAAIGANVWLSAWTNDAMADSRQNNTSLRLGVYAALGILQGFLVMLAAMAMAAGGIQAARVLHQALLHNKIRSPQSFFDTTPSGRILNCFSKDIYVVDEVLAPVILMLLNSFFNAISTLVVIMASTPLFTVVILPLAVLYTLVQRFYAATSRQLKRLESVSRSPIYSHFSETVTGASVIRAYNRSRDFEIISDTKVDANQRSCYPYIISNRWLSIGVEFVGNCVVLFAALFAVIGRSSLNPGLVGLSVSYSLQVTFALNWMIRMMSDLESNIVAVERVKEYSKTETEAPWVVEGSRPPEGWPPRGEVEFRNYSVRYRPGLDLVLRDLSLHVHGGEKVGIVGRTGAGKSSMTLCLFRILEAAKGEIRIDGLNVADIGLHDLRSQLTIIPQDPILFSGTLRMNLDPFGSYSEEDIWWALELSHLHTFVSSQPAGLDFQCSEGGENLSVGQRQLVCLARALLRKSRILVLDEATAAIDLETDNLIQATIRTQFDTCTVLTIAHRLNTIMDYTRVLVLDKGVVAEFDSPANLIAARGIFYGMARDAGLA

Turning to `COC(=O)N[C@H](C(=O)N1[C@H](c2nc3cc(-c4cc5ccc4CCc4ccc(c(-c6ccc7[nH]c([C@@H]8C[C@@H]9CCCC[C@@H]9N8C(=O)[C@@H](NC(=O)OC)C(C)C)nc7c6)c4)CC5)ccc3[nH]2)C[C@@H]2CCCC[C@@H]21)C(C)C` [ODV, Odalasvir], the “inhibition of 2B6” value on 2B6 is reported as “no inhibition”. Also, the “MRP3 inhibition (in words)” value on MRP2/3 is on record as “no inhibition”.

`COc1ccc2c(O[C@@H]3C[C@H]4C(=O)N[C@]5(C(=O)NS(=O)(=O)C6CC6)C[C@H]5/C=C\CCCCN(C)C(=O)[C@@H]4C3)cc(-c3nc(C(C)C)cs3)nc2c1C` [SMV, Simeprevir, reference compound]: in data set [1], the “increase in Rosuvastatin exposure” value is listed as 3 fold. Besides, in the data set with CYP3A4, the “induction of CYP3A4” value was “no induction”.
